In EP1058559B1, “COMBINATION OF A SELECTIVE NMDA NR2B ANTAGONIST AND A COX-2 INHIBITOR” (MERCK SHARP & DOHME LTD., priority 1998, dated 1999):

Tests used:
[1] = system: mechanical allodynia induced by sciatic nerve ligation; assay: sciatic nerve ligation assay of neuropathic pain (mechanical allodynia, modified Randall-Selitto algesiometer); type: in vivo, male Sprague Dawley rats; conditions: result in words; given 1 h before the test
Method: (§1) The present Example examined whether NMDA NR2B receptor antagonists have an improved therapeutic window over unselective NNIDA/glycine antagonists and other ion channel blockers including lamotrigine and gabapentin, by comparing their anti-algesic effects with their liability to induce motor impairment in rats. Anti-algesic activity was assessed using an assay of neuropathic pain in rats (sciatic nerve ligation) and in a carrageenan-induced hyperalgesia assay. Motor impairment was measured using an accelerating rotarod.
(§2) For sciatic nerve ligation, male Sprague Dawley rats (180-220g) were anaesthetised with isofluorane, the left sciatic nerve exposed and 4 chromic catgut (4.0) ligatures were tied loosely around the nerve (spaced 1-2 mm apart) immediately proximal to the point of trifurcation. In shamoperated animals, the same dissection was performed but without ligation. Responses to mechanical pressure were assessed 7 days after ligation using a modified Randall-Selitto algesiometer in which constant force of […] was applied to the hind paw and the latency to struggle was recorded as the reaction time. Mechanical allodynia was defined as the difference in reaction time for sham and ligature rats. Reaction times for drug treated rats were expressed as a percentage of this response. Compounds were administered 1 h before the test. In the carrageenan-induced hyperalgesia assay, male Sprague Dawley rats (100-120 g) received an intraplantar injection of carrageenan (4.5 mg) and mechanical thresholds were determined 3 h later using a modified Ugo Basile Algesiometer. Control rats received saline (0.15 ml i.pl.). Hyperalgesia was defined as the difference in vocalisation threshold for saline- and carrageenan-injected rats. Paw pressure scores for drug-treated rats were expressed as a percentage of this response. Compounds were administered 2 h after carrageenan. To determine the effects of the compounds on motor co-ordination, male Sprague Dawley rats (160-180 g) were first trained to remain for 120 s on the rotarod apparatus revolving at 12 r.p.m. on the morning before the test. Animals then received drug treatments and 1 h later were placed on an accelerating rotarod (increasing from 4 - 40 r.p.m. during a 5 min period) and the time the rats were able to remain on the rotarod recorded. Lamotrigine, gabapentin and (±)-CP-101,606 were suspended in 0.5% methocel and administered orally (1 ml/kg). Ifenprodil, L-701,324, L-687,414 and (±)-Ro25-6981 were dissolved or suspended in 0.5% methocel and administered intraperitoneally (1 ml/kg). MK-801 was dissolved in distilled water and given i.p. (1 ml/kg). Doses of compounds refer to the free base.

[2] = system: motor co-ordination; assay: accelerating rotarod (motor co-ordination) with observed behaviour; type: in vivo, male Sprague Dawley rats; conditions: for ID50 Motor Impairment Rat Rotarod: male, Sprague Dawley, in vivo, ip, 1 h
Method: as §1, §2
To determine the effects of morphine and (±)-Ro25-6981 on motor co-ordination, male Sprague Dawley rats (160-180 g) were first trained to remain for 120 s on the rotarod apparatus revolving at. 12 r.p.m. on the morning before the test. Animals then received drug treatments and 1 h later were placed on an accelerating rotarod (increasing from 4 - 40 r.p.m. during a 5 min period) and the time the rats were able to remain on the rotarod recorded.

[3] = system: mechanical hyperalgesia induced by carrageenan; assay: carrageenan-induced hyperalgesia assay (mechanical thresholds, modified Ugo Basile Algesiometer); type: in vivo, male Sprague Dawley rats; conditions: for inhibition of hyperalgesia: alone, Figure 2
Method: as §1
For sciatic nerve ligation, male Sprague Dawley rats (180-220g) were anaesthetised with isofluorane, the left sciatic nerve exposed and 4 chromic catgut (4.0) ligatures were tied loosely around the nerve (spaced 1-2 mm apart) immediately proximal to the point of trifurcation. In shamoperated animals, the same dissection was performed but without ligation. Responses to mechanical pressure were assessed 7 days after ligation using a modified Randall-Selitto algesiometer in which constant force of […] was applied to the hind paw and the latency to struggle was recorded as the reaction time. […] Reaction times for drug treated rats were expressed as a percentage of this response. […] In the carrageenan-induced hyperalgesia assay, male Sprague Dawley rats (100-120 g) received an intraplantar injection of carrageenan (4.5 mg) and mechanical thresholds were determined 3 h later using a modified Ugo Basile Algesiometer. […] Paw pressure scores for drug-treated rats were expressed as a percentage of this response. […] Animals then received drug treatments and 1 h later were placed on an accelerating rotarod (increasing from 4 - 40 r.p.m. during a 5 min period) and the time the rats were able to remain on the rotarod recorded. […]
Mate Sprague Dawley rats (100-120 g) received an intraplantar injection of carrageenan (4.5 mg) and mechanical thresholds were determined 3 h later using a modified Ugo Basile Algesiometer. […] Paw pressure scores for drug-treated rats were expressed as a percentage of this response. […]

[4] = at doses showing no behavioural abnormality; cited from earlier work

C[C@@H]1CN(O)C(=O)[C@@H]1N [L-687,414]
reversal of mechanical allodynia induced by sciatic nerve ligation [1]: dose-dependently reversed mechanical allodynia

C[C@]12N[C@H](Cc3ccccc31)c1ccccc12 [MK-801]
reversal of mechanical allodynia induced by sciatic nerve ligation [1]: dose-dependently reversed mechanical allodynia | behavioural effects observed ([2]; 0.3 and 1 mg/kg doses (i.p.)): Body rolling, and head weaving

C[C@@H](CN1CCC(Cc2ccccc2)CC1)[C@@H](O)c1ccc(O)cc1 (racemic) [(±)-Ro25-6981]
reversal of mechanical allodynia induced by sciatic nerve ligation [1]: dose-dependently reversed mechanical allodynia | reversal of mechanical hyperalgesia induced by carrageenan ([3]; 10 and 30 mg/kg i.p., Figure 1): dose-dependent reversal of mechanical hyperalgesia | ID50 Motor Impairment Rat Rotarod [2]: ≥100 mg/kg

Nc1nnc(-c2cccc(Cl)c2Cl)c(N)n1 [Lamotrigine]
reversal of mechanical allodynia induced by sciatic nerve ligation [1]: reversed mchanical allodynia

NCC1(CC(=O)O)CCCCC1 [Gabapentin]
reversal of mechanical allodynia induced by sciatic nerve ligation [1]: reversed mchanical allodynia | motor impairments observed ([2]; doses of 30-300 mg/kg): motor impairments (ataxia)

O=c1[nH]c2cc(Cl)ccc2c(O)c1-c1cccc(Oc2ccccc2)c1 [L-701,324]
reversal of mechanical allodynia induced by sciatic nerve ligation [1]: dose-dependently reversed mechanical allodynia | behavioural effects observed ([2]; 10 and 30 mg/kg i.p.): ataxia

CC(C(O)c1ccc(O)cc1)N1CCC(Cc2ccccc2)CC1 (centres unmarked) [Ifenprodil]
reversal of mechanical allodynia induced by sciatic nerve ligation [1]: reversed mchanical allodynia | ID50 Motor Impairment Rat Rotarod [2]: ≥50 mg/kg

(±)-CP-101,606
reversal of mechanical allodynia induced by sciatic nerve ligation [1]: dose-dependently reversed mechanical allodynia | analgesic activity [4]: Potent analgesic activity

CS(=O)(=O)Nc1cc2c(cc1Sc1ccc(F)cc1F)C(=O)CC2 [L-745,337]
inhibition of hyperalgesia ([3]; 3 mg/kg p.o.): 75% | inhibition of hyperalgesia ([3]; 0.3-3 mg/kg p.o., result in words): dose-dependent inhibition of hyperalgesia
